# Test system: antiserum of Example 4
# Assay: Cross-reactivity of the antiserum: inhibition by 50% of the reaction between antibody (antiserum) and tracer antigen (tritiated thioridazine)
# Assay type: binding, sheep
# Settings: relative to thioridazine; tracer tritiated thioridazine
# Excerpt: The selectivity of the method can be determined as follows.
# The main metabolites of thioridazine having a structure closely related to the parent compound are thioridazine-derivatives oxidized in the 2-methylthio side chain, more specifically the sulfoxide (A) and the sulfone (B), and also demethyl-thioridazine (C). The cross-reactivity of the antiserum was examined by employing a mixture of thioridazine, its sulfoxide A and sulfone B and its demethyl-thioridazine C in the amount required to inhibit the reaction between antibody (antiserum) and tracer antigen (tritiated thioridazine) by 50%.
row,"inhibitory concentration where 50% binding to the antiserum of Example 4 occurs, times higher than that of the parent compound",Structure (SMILES)
1,67 times,CN1CCCCC1CCN1c2ccccc2Sc2ccc([S+](C)[O-])cc21 (stereo not drawn) [A]
2,93 times,CN1CCCCC1CCN1c2ccccc2Sc2ccc(S(C)(=O)=O)cc21 (stereo not drawn) [B]
3,111 times,"CSc1ccc2c(c1)N(CCC1CCCCN1)c1ccccc1S2 (stereo not drawn) [C, demethyl-thioridazine]"

# Reference: patent US4387086A, “Organic compounds” (Sandoz Ltd., priority 1979, dated 1983)
